US9389237B2, “Methods for inhibiting the development of Huntington's disease” (priority 2003, dated 2016)
Values joined by “and” are separate entries in the source; they are usually repeats but may differ in a detail not shown here. Identical values can stand only once. “Also recorded” adds a separate entry of the source.

How the values were obtained:
[1] = system: mutant form of huntingtin; experiment: In vitro estradiol binding study, overall conclusion; conditions: conclusion from Table 2
Description: These pure proteins were then used in the following binding protocol. Oestradiol-6-(0-carboxymethyl)oximino-(2-[125I] iodohistamine was used as the estradiol source. Buffer B preferably comprises: 250 mM tris, 150 mM NaCl, and a Dextran Charcoal solution comprising 0.05% Dextran coated charcoal in buffer B (sigma Cat#6197). About 0.5 ml of buffer B was preferably used per reaction. A total of 5 ml of Buffer B was aliquoted into a glass borosilicate tube (Fisher Cat#14-961-26) and 10 μL of Oestradiol (1125) was added containing approximately 2,000,000 cpm. About 0.5 ml of this solution was then distributed into eight labeled glass tubes (cat #14-961-260). The entire tube #1's 500 μL was counted. Tube #2 through #8 were treated in the following manner:
Tubes #2-#8 were incubated for 1 hour at room temperature, placed on ice for ten minutes, and 200 μL of the Dextran charcoal solution in buffer B was added. These tubes were then placed on ice ten minutes and then centrifuged 15 minutes at 2200 rpm in a Sorvall RC-3 refrigerated centrifuge with swinging bucket rotor (Sorvall HL-8) at 4 degrees. The entire 700 μL supernatant was removed and counted using Genesys multi-well gamma counter (Laboratories Technology, Inc.). The results are summarized below: […]

[2] = system: HD transgenic mice (HDexon 1 + 159-161 CAG repeat units); experiment: Body weight of hormone treated HD transgenic mice; format: in vivo; conditions: for Last wt Week 12 / Peak wt Weeks 8/9 / % change in weight / Change in Grams / % change: single animals; for Average % change: group average weight loss; for % change in weight / Change in Grams / % change: peak to week 12
Source text: 30 HD mice were obtained from the Jackson Laboratory, Bar Harbor, Me. The group consists of a 15 hemizygous female strain #2810 and 15 hemizygous males strain #2810 (containing the transgene HDexon 1+159-161 CAG repeat units). These mice were grouped as follows: • All mice received ear clips as identification, noting hair color. • 1-15 were males and 16-29 were females mouse #30 arrived dead. • Male mice: 1-4 were control animals receiving no treatment, 5,6,7,11 were grouped as E1 8, 9, 10 and 12 were grouped as E2. […] 28 and 29 were grouped as T2, receiving 100 ug/ml testosterone.
Body Weight: All animals were weighed on a scale weekly throughout the study. All weights were recorded.

[3] = system: HD transgenic mice (HDexon 1 + 159-161 CAG repeat units); experiment: Brain weight at week 12 of treated HD transgenic mice; format: in vivo; conditions: for Brain weight at week 12: single animals
Source text: 30 HD mice were obtained from the Jackson Laboratory, Bar Harbor, Me. The group consists of a 15 hemizygous female strain #2810 and 15 hemizygous males strain #2810 (containing the transgene HDexon 1+159-161 CAG repeat units). These mice were grouped as follows: • All mice received ear clips as identification, noting hair color. • 1-15 […] receiving no treatment, […], 9, 10 and 12 were grouped as E2. […] 20, 21, 22, 26 were grouped as E3, 23, 24, 25, 27 were grouped as E4. 28 and 29 were grouped as T2, receiving 100 ug/ml testosterone.
After euthanized, all brains of all mice were surgically removed and placed in a solution of formaldehyde and weighed on a scale. The weights were recorded.

[4] = system: HD transgenic mice (HDexon 1 + 159-161 CAG repeat units); experiment: Beam walking (raised beam) of treated HD transgenic mice; format: in vivo; conditions: for ability to transverse the ½ in beam in the allotted time / improvement over the course of the study (continued ability to cross the ½ in^2 beam after controls were unable): HD mice, 150 seconds allotted; for ability to transverse the ½ in beam in the allotted time: versus untreated control liter mates; for improvement over the course of the study (continued ability to cross the ½ in^2 beam after controls were unable): two weeks after control animals failed; for time after untreated liter mates were unable to perform the trained task, with retained cognitive decision making and motor function: HD transgenic mice, beam task
Source text: 30 HD mice were obtained from the Jackson Laboratory, Bar Harbor, Me. The group consists of a 15 hemizygous female strain #2810 and 15 hemizygous males strain #2810 (containing the transgene HDexon 1+159-161 CAG repeat units). These mice were grouped as follows: • All mice received ear clips as identification, noting hair color. • 1-15 were males and 16-29 were females mouse #30 arrived dead. • Male mice: 1-4 were control animals receiving no treatment, 5,6,7,11 were grouped as E1 8, 9, 10 and 12 were grouped as E2. 13, 14 and 15 were grouped as T1, receiving 100 ug/ml testosterone weekly. • Female mice: 16-19 were control animals receiving no treatment. 20, 21, 22, 26 were grouped as E3, 23, 24, 25, 27 were grouped as E4. 28 and 29 were grouped as T2, receiving 100 ug/ml testosterone.
Utilizing the raised beam, mice were assessed for their ability to transverse a graded series of narrow beams to reach a safety platform. The beams consisted of long strips of wood with a 12 mm or 5 mm square cross section. The beams were placed horizontally, 50 cm above each bench surface, with one end mounted on a narrow support and the other end attached to an enclosed box to which the animal could escape. Two inches of dense foam was placed under the test area to protect the animals from fall injury. Training took place in a 3 or 4 day period, where the mice were trained two to four times in a four day period using the 12 mm square beam. Once they were trained to walk the beam (i.e., traversing the 12 mm square beam in less than 20 seconds), they received two consecutive trails on each of the square beam and each of the round beams, in each case progressing from the widest to the narrowest beam. Mice were afforded 150 seconds to traverse each beam. The number of times the mice slipped off of the beam was recorded for each trial. The mean score was used for each trial.

[5] = Serum hormone level (ES/TT) in treated HD mice; conditions: subcutaneous injection as emulsion with Freund's incomplete adjuvant
Description: Hormone tests of serum were performed to verify the blood levels of estradiol or testosterone. The mice (controls=no treatment) were tested against liter mates receiving either (E1 and E3 100 ug/ml weekly) or (E2 and E4 200 ug/ml injection weekly).
Blood specimens for estradiol assay using Elisa methodology was obtained during the study.
Stock solution of estradiol and testosterone were diluted with water and mixed with Freund's incomplete adjuvant. This was mixed continuously for 1 minute and either 100 ul (E1 and E3) or 200 ul (E2 and E4) were injected subcutaneously. […] Animals in the E1 and E3 groups were targeted to receive 100-300 pg/ml estrogen and groups E2 and E4 were targeted to receive 400-800 pg/ml of estrogen. Animals in T1 and T2 grouping were targeted to receive 100 pg/ml testosterone.

[6] = female HD mice, group E1, 100 ul ES dose weekly, target blood level 100-300 pg/ml
[7] = female HD mice, group E1, 100 ul ES dose weekly
[8] = female HD mice, group E2, 200 ul ES dose weekly, target blood level 400-800 pg/ml
[9] = female HD mice, group E2, 200 ul ES dose weekly
[10] = male HD mice, group E3, 100 ul ES dose weekly, target blood level 100-300 pg/ml
[11] = male HD mice, group E3, 100 ul ES dose weekly
[12] = male HD mice, group E4, 200 ul ES dose weekly, target blood level 400-800 pg/ml
[13] = male HD mice, group E4, 200 ul ES dose weekly
[14] = female HD mice, group T1, 100 ul T dose weekly, target blood level 50-100 pg/ml
[15] = female HD mice, group T1, 100 ul T dose weekly
[16] = male HD mice, group T2, 100 ul T dose weekly, target blood level 50-100 pg/ml
[17] = male HD mice, group T2, 100 ul T dose weekly

## C[C@]12CC[C@@H]3c4ccc(O)cc4CC[C@H]3[C@@H]1CC[C@@H]2O [estradiol, 1,3,5(10)-estratriene-3,17beta-diol]
[1]
  affinity for mutant huntingtin: an affinity for estradiol has been demonstrated

## CC12CCC3c4ccc(O)cc4CCC3C1CC[C@@H]2OC(=O)CCC1CCCC1 (stereo partly drawn) [estradiol cypionate, estradiol 17-cyclopentanepropionate]
[2]; [6]
  Last wt Week 12: 21.7 g and 16.9 g and 18.9 g and 18.2 g
  Peak wt Weeks 8/9: 24.0 g and 19.9 g and 21.2 g and 25.0 g
[2]; female HD mice, group E1, 100 ul ES dose weekly, controls 21.7%
  Average % change: 15.5%
[2]; [7]
  % change in weight: −9.0% and −15.0% and −10.8% and −27.2%
  Change in Grams: −2.3 g (2×) and −3.0 g and −6.8 g
[2]; [8]
  Last wt Week 12: 20.5 g and 17.6 g and 13.5 g and 20.7 g
  Peak wt Weeks 8/9: 21.5 g and 21.8 g and 19.8 g and 22.5 g
[2]; female HD mice, group E2, 200 ul ES dose weekly, controls 21.7%
  Average % change: 15.7%
[2]; [9]
  % change in weight: −4.6% and −19.2% and −31.0% and −8.0%
  Change in Grams: -1.0 g and -4.2 g and -6.3 g and -1.8 g
[2]; [10]
  Last wt Week 12: 19.6 g and 22.6 g and 21.7 g and 23.5 g
  Peak wt Weeks 8/9: 26.2 g and 26.7 g and 24.8 g and 26.4 g
[2]; male HD mice, group E3, 100 ul ES dose weekly, controls 27.2%
  Average % change: 15.9%
[2]; [11]
  % change: −25.0% and −15.3% and −12.5% and −10.9%
  Change in Grams: -6.6 g and -4.1 g and -3.1 g and -2.9 g
[2]; [12]
  Last wt Week 12: 22.9 g and 19.6 g and 20.2 g and 19.4 g
  Peak wt Weeks 8/9: 26.2 g and 24.6 g and 23.7 g and 22.1 g
[2]; male HD mice, group E4, 200 ul ES dose weekly, controls 27.2%
  Average % change: 14.9%
[2]; [13]
  % change: −12.5% and −20.3% and −14.7% and −12.2%
  Change in Grams: -3.3 g and -5.0 g and -3.5 g and -2.7 g
[3]; [7]
  Brain weight at week 12: 0.33 g and 0.36 g and 0.34 g and 0.30 g
[3]; [9]
  Brain weight at week 12: 0.33 g and 0.37 g (2×)
[3]; [11]
  Brain weight at week 12: 0.37 g (2×) and 0.40 g (2×)
[3]; [13]
  Brain weight at week 12: 0.39 g and 0.34 g and 0.35 g
[3]; on average, lower level (100-300 Pg/ml) of estrogen treatment versus untreated
  increase in brain weight: ≤ 10%
[4]
  ability to transverse the ½ in beam in the allotted time: significant improvement; also recorded: able to complete the traversing of the beam in the allotted time; also recorded: significant increase in their ability to cross the beam within the time allotment
  improvement over the course of the study (continued ability to cross the ½ in^2 beam after controls were unable): 16.6%
  time after untreated liter mates were unable to perform the trained task, with retained cognitive decision making and motor function: 14 days
[5]
  release after injection: continuous over six days

## CC12CCC(=O)C=C1CCC1[C@@H]2CCC2(C)[C@@H](OC(=O)CCC3CCCC3)CC[C@@H]12 (stereo partly drawn) [testosterone cypionate, androst-4-en-3-one,17-(3-cyclopentyl-1-oxopropoxy)-, (17β)-]
[2]; [14]
  Last wt Week 12: 17.4 g and 14.5 g
  Peak wt Weeks 8/9: 27.6 g and 21.6 g
[2]; female HD mice, group T1, 100 ul T dose weekly, controls 21.7%
  Average % change: 34.8%
[2]; [15]
  % change in weight: −36.9% and −32.8%
  Change in Grams: -10.2 g and -7.1 g
[2]; [16]
  Last wt Week 12: 17.1 g and 25.1 g and 19.0 g
  Peak wt Weeks 8/9: 23.4 g and 28.0 g and 27.0 g
[2]; male HD mice, group T2, 100 ul T dose weekly, controls 27.2%
  Average % change: 22.2%
[2]; [17]
  % change: −26.9% and −10.3% and −29.6%
  Change in Grams: -6.3 g and -2.9 g and -8.0 g
[3]; [15]
  Brain weight at week 12: 0.31 g
[3]; [17]
  Brain weight at week 12: 0.31 g and 0.37 g and 0.33 g
[4]
  ability to transverse the ½ in beam in the allotted time: significant improvement
  improvement over the course of the study (continued ability to cross the ½ in^2 beam after controls were unable): 16.6%
  time after untreated liter mates were unable to perform the trained task, with retained cognitive decision making and motor function: 14 days
